In patent publication US20110028447A1, “INDAZOLE DERIVATIVES” (Pfizer Inc., priority 2008, published 2011):
Read-outs that look alike come from different tables or passages of the source.

Assays:
human CB1 receptor [1] = biological target: T1, human CB1 receptor (Homo sapiens, UniProt P21554); assay: Human CB1 receptor binding, [3H] CP-55,940 displacement on HEK cell membranes; parameters: expressed in transfected cells; host or cells: HEK cells, doxycycline-induced; membrane preparation
Summary of the method: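 Membranes from doxycycline-induced HEK cells expressing human CB1 incubated 60 min at room temperature with [3H] CP-55,940 (final […]) in 50 mM Tris pH 7.4, 100 mM NaCl, 3 mM MgCl2, 0.2 mM EGTA, 0.04% BSA. Nonspecific binding defined with 50 μM WIN-55,212-2; filtration and scintillation counting gave EC50 and Ki.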

human CB1 receptor [2] = biological target: T1, human CB1 receptor; assay: [35S] GTPγS binding on membranes of CHO cells expressing the human CB1 receptor (agonism); assay type: biochemical; parameters: expressed in transfected cells; membrane preparation
Experimental: Membrane preparation: CHO cells expressing the human CB1 receptor were grown to 80% confluence in Ham's F-12 Nutrient Medium (Invitrogen) containing 10% fetal bovine serum (Invitrogen), 1% pen/strep (Invitogen), 1% Nonessential amino acids (Invitrogen) and 500 μg/ml G418 (Invitrogen). Cells were released from flasks using Cell Dissociation Buffer (Invitrogen). Cells were pelleted by centrifugation at 500×G for 5 minutes. Membranes were prepared by resuspending cells in ice cold Assay Buffer (25 mM Tris pH 7.4, 5 mM EDTA, 5 mM EGTA, Complete Protease Inhibitor (Roche)). Cells were lysed with 12 strokes of a dounce homogenizer. Unlysed cells were pelleted by centrifugation at 500×G for 5 minutes. Membranes were pelleted by centrifugation at 25,000×G for 30 minutes. Membranes were resuspended in TEE, dounced 12 strokes, and pelleted a second time at 25,000×G for 30 minutes. Membrane pellet was resuspended in 50 mM Tris pH 7.4, 100 mM NaCl, 3 mM MgCl2, 0.2 mM EGTA, Complete Protease Inhibitor (Roche). Protein concentration was determined using the Micro-BCA Protein Assay Kit (Pierce) using BSA as a standard. Membranes were frozen and stored at −80 degrees Celsius until use.
GTPγS Binding: 40 μl of test compound was incubated with 20 μl of [^35S] GTPγS (Perkin Elmer) (1250 Ci/millimole) and 140 μl of membrane homogenate (5 μg/well) in polypropylene 96-well plates (Corning). Final reaction conditions were 50 mM Tris pH 7.4, 100 mM NaCl, 3 mM MgCl2, 0.2 mM EGTA, 0.04% BSA. After incubation at 37 degrees Celsius for 45 minutes reactions were harvested by vacuum filtration through Unifilter GF/B-96 filters (Perkin Elmer) using a FilterMate Plate Harvester (Perkin Elmer). Filters were rinsed 4 times with ice cold 50 mM Tris pH 7.4, 3 mM MgCl2, 0.2 mM EGTA and dried at 50 degrees Celsius for at least 30 minutes. 40 μl of Microscint-20 (Perkin Elmer) was added per well, and plates were counted using a Top-Count Microplate Scintillation Counter (Perkin Elmer). Binding data were analyzed and EC50 values were calculated using Graph Pad Prism 4.0 Software.

[3] = GTPγS EC50, human CB1, CHO cell membranes
[4] = human CB1, CHO cell membranes, read-out: GTPγS EC50

T1 sequence (P21554 whole entry): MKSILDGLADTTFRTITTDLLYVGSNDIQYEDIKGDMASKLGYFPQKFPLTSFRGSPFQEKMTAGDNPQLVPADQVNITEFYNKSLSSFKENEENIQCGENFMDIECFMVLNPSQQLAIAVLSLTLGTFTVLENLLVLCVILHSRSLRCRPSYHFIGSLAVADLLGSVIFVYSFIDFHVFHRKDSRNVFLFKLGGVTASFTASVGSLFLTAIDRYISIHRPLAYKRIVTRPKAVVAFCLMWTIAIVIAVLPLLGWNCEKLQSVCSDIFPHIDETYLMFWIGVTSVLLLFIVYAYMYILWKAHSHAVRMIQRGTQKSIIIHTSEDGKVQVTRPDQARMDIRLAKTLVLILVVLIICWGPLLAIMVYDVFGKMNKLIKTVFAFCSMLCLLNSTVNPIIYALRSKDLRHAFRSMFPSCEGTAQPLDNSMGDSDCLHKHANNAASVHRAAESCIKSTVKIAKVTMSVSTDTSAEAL

Structure (SMILES)	Ki (human CB1 receptor [1]; CB1 Ki)	EC50 (human CB1 receptor [2]; [3])	Ki (human CB1 receptor [1]; read-out: CB1 Ki)	EC50 (human CB1 receptor [2]; [4])
CC(C)(C)[C@H](NC(=O)c1nn(Cc2ccc(F)cc2)c2ccccc12)C(N)=O [Example 1, N-[(1S)-1-(Aminocarbonyl)-2,2-dimethylpropyl]-1-(4-fluorobenzyl)-1H-indazole-3-carboxamide]	0.36 nM	0.98 nM		
CC(C)[C@H](NC(=O)c1nn(Cc2ccc(F)cc2)c2ccccc12)C(N)=O [Example 2, N-[(1S)-1-(aminocarbonyl)-2-methylpropyl]-1-(4-fluorobenzyl)-1H-indazole-3-carboxamide]	0.9 nM	23.2 nM		
NC(=O)[C@@H](NC(=O)c1nn(Cc2ccc(F)cc2)c2ccccc12)c1ccccc1 [Example 3, N-[(1S)-2-amino-2-oxo-1-phenylethyl]-1-(4-fluorobenzyl)-1H-indazole-3-carboxamide]	49.9 nM	298 nM		
CC(C)(C)[C@H](NC(=O)c1nn(Cc2ccccn2)c2ccccc12)C(N)=O [Example 6, N-[(1S)-1-(aminocarbonyl)-2,2-dimethylpropyl]-1-(pyridin-2-ylmethyl)-1H-indazole-3-carboxamide]	12.6 nM	160 nM		
CC(C)(C)[C@H](NC(=O)c1nn(Cc2ccccc2)c2ccc(Br)cc12)C(N)=O [Example 7, N-[(1S)-1-(aminocarbonyl)-2,2-dimethylpropyl]-1-benzyl-5-bromo-1H-indazole-3-carboxamide]	2.04 nM	12.9 nM		
CC(C)(C)[C@H](NC(=O)c1nn(Cc2ccccc2)c2ccc(-c3cccnc3)cc12)C(N)=O [Example 8, N-[(1S)-1-(Aminocarbonyl)-2,2-dimethylpropyl]-1-benzyl-5-pyridin-3-yl-1H-indazole-3-carboxamide]			118 nM	209 nM
CC(C)(C)[C@H](NC(=O)c1nn(Cc2ccc(C#N)cc2)c2c(F)cccc12)C(=O)NCCO [Example 10, 1-(4-cyanobenzyl)-7-fluoro-N-[(1S)-1-{[(2-hydroxyethyl)amino]carbonyl}-2,2-dimethylpropyl]-1H-indazole-3-carboxamide]	1.91 nM	37.5 nM		
CC(C)(C)[C@H](NC(=O)c1nn(Cc2ccc(F)cc2)c2ccccc12)C(=O)NCc1nnc(C(N)=O)o1 [Example 11, N-{(1S)-1-[({[5-(aminocarbonyl)-1,3,4-oxadiazol-2-yl]methyl}amino)carbonyl]-2,2-dimethylpropyl}-1-(4-fluorobenzyl)-1H-indazole-3-carboxamide]			0.29 nM	0.55 nM
CC(C)(C)[C@H](NC(=O)c1nn(Cc2ccccc2)c2ncccc12)C(N)=O [Example 12, N-[(1S)-1-(aminocarbonyl)-2,2-dimethylpropyl]-1-benzyl-1H-pyrazolo[3,4-b]pyridine-3-carboxamide]	11.5 nM	302 nM		
CC(C)(C)[C@H](NC(=O)c1nn(Cc2ccccc2F)c2ccccc12)C(N)=O [Example 13]	0.73 nM	11.9 nM		
CC(C)C(NC(=O)c1nn(Cc2ccccc2F)c2ccccc12)C(N)=O (stereo not shown) [Example 17]	4.69 nM	149 nM		
CC(C)(C)C(NC(=O)c1nn(Cc2cccc(F)c2)c2ccccc12)C(N)=O (stereo not shown) [Example 19]	2.57 nM	20.5 nM		
CC(C)C(NC(=O)c1nn(Cc2cccc(F)c2)c2ccccc12)C(N)=O (stereo not shown) [Example 20]	51.1 nM	216 nM		
CC(C)(C)C(NC(=O)c1nn(Cc2ccccc2)c2ccccc12)C(N)=O (stereo not shown) [Example 27]	0.33 nM	14.7 nM		
CC(C)(C)C(NC(=O)c1nn(Cc2ccc(C#N)cc2)c2ccccc12)C(N)=O (stereo not shown) [Example 28]	2.05 nM	121 nM		
CC(C)(C)C(NC(=O)c1nn(Cc2ccccc2C#N)c2ccccc12)C(N)=O (stereo not shown) [Example 30]	9.22 nM	78.9 nM		
CC(C)(C)C(NC(=O)c1nn(Cc2ccccc2)c2cc(Br)ccc12)C(N)=O (stereo not shown) [Example 33]	0.24 nM	0.92 nM		
CC(C)(C)C(NC(=O)c1nn(Cc2ccccc2)c2ccc(-c3ncco3)cc12)C(N)=O (stereo not shown) [Example 35]			35.3 nM	271 nM
COC(=O)[C@@H](NC(=O)c1nn(Cc2ccccc2)c2ccccc12)C(C)(C)C [Example 38]	0.14 nM	2.42 nM		
COc1cccc(CNC(=O)c2nn(Cc3ccccc3)c3ccccc23)c1 [Example 43]	27.1 nM	101 nM		
CC(C)(C)[C@H](NC(=O)c1nn(Cc2ccccc2)c2cc(-c3cccnc3)ccc12)C(N)=O [Example 45]			8.79 nM	21.4 nM
CC(C)(C)[C@H](NC(=O)c1nn(Cc2ccc(C#N)cc2)c2ccccc12)C(=O)NC1CC1 [Example 65]	3.85 nM	90 nM		
CC(C)(C)[C@H](NC(=O)c1nn(Cc2ccc(C#N)cc2)c2ccccc12)C(=O)NCCCO [Example 67]	46.5 nM	827 nM		

Structure (SMILES)	Ki (human CB1 receptor [1]; CB1 Ki)	EC50 (human CB1 receptor [2]; [3])	Ki (human CB1 receptor [1]; read-out: CB1 Ki)	EC50 (human CB1 receptor [2]; [4])
Cc1cc(CNC(=O)c2nn(Cc3ccc(C#N)cc3)c3ccccc23)c(C)o1 [Example 68]	4.61 nM	90.1 nM		
CC(C)(C)[C@H](NC(=O)c1nn(Cc2ccc(C#N)cc2)c2ccccc12)C(=O)NCCO [Example 69]	18.8 nM	183 nM		
CC(C)(C)[C@H](NC(=O)c1nn(Cc2ccc(C#N)cc2)c2ccccc12)c1nnc(N)o1 [Example 71]			8.85 nM	314 nM
CC(C)(C)[C@H](NC(=O)c1nn(Cc2ccccc2)c2ccccc12)C(=O)NC[C@H](O)CO [Example 73]	22.9 nM	217 nM		
CC(C)(C)C(NC(=O)c1nn(Cc2ccc(F)cc2)c2ccccc12)C(=O)NCC(O)CO (stereo not shown) [Example 77]	5.39 nM	48.1 nM		
CC(C)(C)C(NC(=O)c1nn(Cc2ccc(F)cc2)c2ccccc12)c1nnc(NC(=O)C2CC2)o1 (stereo not shown) [Example 78]			0.59 nM	2.88 nM
CC(C)(C)C(NC(=O)c1nn(Cc2ccc(F)cc2)c2ccccc12)C(=O)NCC(O)CO (stereo not shown) [Example 79]	2.02 nM	27.1 nM		
CC(C)(C)C(NC(=O)c1nn(Cc2ccc(F)cc2)c2ccccc12)C(=O)NC1CC1 (stereo not shown) [Example 80]	0.21 nM	1.82 nM		
CC(C)(C)C(NC(=O)c1nn(Cc2ccc(F)cc2)c2ccccc12)C(=O)NCCO (stereo not shown) [Example 81]	0.32 nM	0.98 nM		
CC(C)(C)C(NC(=O)c1nn(Cc2ccc(F)cc2)c2ccccc12)C(=O)NCC(N)=O (stereo not shown) [Example 82]	1.12 nM	22.1 nM		
CC(C)(C)C(NC(=O)c1nn(Cc2ccccc2)c2ccccc12)C(=O)NCCNC(N)=O (stereo not shown) [Example 83]	15.3 nM	720 nM		
CC(C)(C)[C@H](NC(=O)c1nn(Cc2ccc(C#N)cc2)c2c(F)cccc12)C(=O)NC[C@H]1C[C@@H]1CO [Example 486]	43.9 nM			
CC(C)(C)[C@H](NC(=O)c1nn(Cc2ccc(C#N)cc2)c2cc(F)ccc12)C(=O)NC[C@H]1C[C@@H]1CO [Example 487]	109 nM			
CC(C)(C)[C@H](NC(=O)c1nn(Cc2ccc(C#N)cc2)c2ccccc12)C(=O)NC[C@H]1C[C@H]1CO [Example 489]	127 nM			
CC(C)(C)[C@H](NC(=O)c1nn(Cc2ccc(C#N)cc2)c2cc(F)ccc12)C(=O)NC[C@H]1C[C@H]1CO [Example 491]	88.5 nM			
CC(C)(C)[C@H](NC(=O)c1nn(Cc2ccc(F)cc2)c2ccccc12)C(=O)NCC(=O)NCC(=O)O [Example 495]			130 nM	
CC(C)(C)[C@H](NC(=O)c1nn(Cc2ccc(F)cc2)c2ccccc12)C(=O)NC[C@H](O)CN1CCCC1 [Example 503]			321 nM	
CCN(CC)C[C@@H](O)CNC(=O)[C@@H](NC(=O)c1nn(Cc2ccc(F)cc2)c2ccccc12)C(C)(C)C [Example 505]			301 nM	
CN(CCO)C[C@@H](O)CNC(=O)[C@@H](NC(=O)c1nn(Cc2ccc(F)cc2)c2ccccc12)C(C)(C)C [Example 507]			212 nM	
Cn1ccc(NC(=O)[C@@H](NC(=O)c2nn(Cc3ccc(F)cc3)c3ccccc23)C(C)(C)C)n1 [Example 515]	37.5 nM			
CC(C)(C)[C@H](NC(=O)c1nn(Cc2ccc(F)cc2)c2ccccc12)C(=O)NCC(=O)NCCCO [Example 521]			> 400 nM	
CC(C)(C)[C@H](NC(=O)c1nn(Cc2ccc(F)cc2)c2ccccc12)C(=O)NCC(=O)NC[C@H](O)CO [Example 522]			> 400 nM	
